# Test results taken from paper PMC4627800, “Allelic Variation of Cytochrome P450s Drives Resistance to Bednet Insecticides in a Major Malaria Vector” (PLoS Genetics, 2015).
# Experiments:
# FANGCYP6P9a = FANGCYP6P9a (Anopheles funestus, UniProt K7Z0P3); test: Pyrethroid depletion (metabolism) assay with recombinant enzyme; format: biochemical; conditions: 20μM insecticide, 1 hour, vs -NADPH
# Description: (§2) Membrane expressing recombinant CYP6P9a/-b and AgCPR, and reconstituted cytochrome b5 were added to the side of the tube and pre-incubated for 5 minutes at 30°C, with shaking at 1,200 rpm to activate the membrane. 20μM of test insecticide was then added into the final volume of 0.2ml (~2.5% v/v methanol), and reaction started by vortexing at 1,200 rpm and 30°C for 1 hour. Reactions were quenched with 0.1ml ice-cold methanol and incubated for 5 more minutes. Tubes were then centrifuged at 16,000 rpm and 4°C for 15 minutes, and 150μl of supernatant transferred into HPLC vials for analysis. Reactions were carried out in triplicates with experimental samples (+NADPH) and negative controls (-NADPH). 100μl of sample was loaded onto an isocratic mobile phase (90:10 v/v methanol to water) with a flow rate of 1ml/min, monitoring wavelength of 226nm and peaks separated with a 250mm C18 column (Acclaim 120, Dionex) on Agilent 1260 Infinity at 23°C. Enzyme activity was calculated as percentage depletion (the difference in the amount of insecticide(s) remaining in the +NADPH tubes compared with the–NADPH) and a t-test used for statistical analysis.
# CYP6M2 = test system: CYP6M2; parameters: method as in ref [5] (S1 Text); conditions: cited from earlier work
# MALCYP6P9a = MALCYP6P9a (Anopheles funestus, UniProt B5AII6); test: Steady-state kinetics of pyrethroid metabolism; format: biochemical
# Description: (§1) Reactions were performed in triplicates both for +NADPH (experimental tubes) and–NADPH (negative control). K m and V max were established from the plot of substrate concentrations against the initial velocities and fitting of the data to the Michaelis-Menten module using the least squares non-linear regression, as described in the GraphPad Prism 6.03 Software (GraphPad Inc., La Jolla, CA, USA).
# UGANCYP6P9b = UGANCYP6P9b (Anopheles funestus, UniProt A0A0S1S7Y0); test: Steady-state kinetics of pyrethroid metabolism; format: biochemical
# Description: as §1
# MALCYP6P9b [1] = biological target: T1, MALCYP6P9b (Anopheles funestus, UniProt B5AII7); test: Steady-state kinetics of pyrethroid metabolism; format: biochemical
# Description: as §1
# BENCYP6P9a = BENCYP6P9a (Anopheles funestus, UniProt A0A0S1RZ75); test: Steady-state kinetics of pyrethroid metabolism; format: biochemical
# Description: as §1
# MALCYP6P9b [2] = biological target: T1, MALCYP6P9b; test: Pyrethroid depletion (metabolism) assay with recombinant enzyme; format: biochemical; conditions: 20μM insecticide, 1 hour, vs -NADPH
# Description: as §2
compound,measurement,setting,value
CC1(C)C(C=C(Cl)Cl)C1C(=O)OCc1cccc(Oc2ccccc2)c1 (stereo not drawn) [permethrin],Percentage depletion,FANGCYP6P9a,29.0±1.42%
same,Km,CYP6M2; An. gambiae CYP6M2 ref [5] (S1 Text),12 µM
same,catalytic efficiency,CYP6M2; Anopheles gambiae CYP6M2 ref [5] (S1 Text),~ 0.5 min^-1µM^-1
same,Kcat,MALCYP6P9a,15.41±6.30^a min^-1
same,Km,MALCYP6P9a,18.8 ± 11.8 µM
same,"Kcat, fold higher than FANGCYP6P9a",MALCYP6P9a; MALCYP6P9a vs FANGCYP6P9a,3 fold
same,"catalytic efficiency, fold higher than FANGCYP6P9a",MALCYP6P9a; MALCYP6P9a vs FANGCYP6P9a,6 fold
same,Kcat,UGANCYP6P9b,8.61±3.40^b min^-1
same,"Kcat, fold higher than FANGCYP6P9b",UGANCYP6P9b; UGANCYP6P9b vs FANGCYP6P9b,2 fold
same,Kcat,MALCYP6P9b [1],12.38±4.5^b min^-1
same,Km,MALCYP6P9b [1],12.7 ± 2.68 µM
same,"Kcat, fold higher than FANGCYP6P9b",MALCYP6P9b [1]; MALCYP6P9b vs FANGCYP6P9b,3 fold
same,"catalytic efficiency, fold more efficient than FANGCYP6P9b",MALCYP6P9b [1]; MALCYP6P9b vs FANGCYP6P9b,5 fold
same,Kcat,BENCYP6P9a,9.37±3.32^a min^-1
same,"Kcat, fold higher than FANGCYP6P9a",BENCYP6P9a; BENCYP6P9a vs FANGCYP6P9a,2 fold
same,"catalytic efficiency, fold higher than FANGCYP6P9a",BENCYP6P9a; BENCYP6P9a vs FANGCYP6P9a,3 fold
same,Percentage depletion,MALCYP6P9b [2],more than 90%
same,Percentage depletion,MALCYP6P9b [2]; listed as Permethrin,91.6±2.5 %
